Conditions: 323.16 K, Liquid, Vibrating tube method

CCCCCC(=O)OCC(COC(=O)CCCCC)(COC(=O)CCCCC)COC(=O)CCCCC [pentaerythritol tetrahexanoate]
Conditions	mass density [kg/m3]
20616 kPa	986.5
20645 kPa	986.3
20674 kPa	986.4
20698 kPa	986.4
20727 kPa	986.4
20756 kPa	986.4
20787 kPa	986.5
20811 kPa	986.6
20841 kPa	986.5
20871 kPa	986.5
20925 kPa	986.7
20955 kPa	986.6
20984 kPa	986.5
21013 kPa	986.7
21035 kPa	986.7
21061 kPa	986.7
21087 kPa	986.7
21113 kPa	986.7
21139 kPa	986.7
21161 kPa	986.8
21187 kPa	986.8
21214 kPa	986.8
21236 kPa	986.9
21262 kPa	986.9
21289 kPa	987
21316 kPa	986.8
21342 kPa	986.8
21368 kPa	986.9
21391 kPa	986.9
21418 kPa	987
21445 kPa	987
21467 kPa	986.9
21494 kPa	987
21522 kPa	986.9
21550 kPa	987.1
21572 kPa	987.1
21599 kPa	987.1
21626 kPa	987
21654 kPa	987
21681 kPa	987.1
21708 kPa	987.1
21730 kPa	987.1
21755 kPa	987.2
21780 kPa	987.2
21806 kPa	987.2
21832 kPa	987.2
21854 kPa	987.2
21880 kPa	987.3
21902 kPa	987.2
21928 kPa	987.2
21954 kPa	987.4
21980 kPa	987.2
22005 kPa	987.2
22031 kPa	987.3
22053 kPa	987.4
22079 kPa	987.4
22105 kPa	987.4
22131 kPa	987.3
22154 kPa	987.3
22182 kPa	987.4
22208 kPa	987.5
22231 kPa	987.4
22541 kPa	987.6
22566 kPa	987.6
22591 kPa	987.9
22616 kPa	987.7
22641 kPa	987.7
22688 kPa	987.8
22713 kPa	987.8
22739 kPa	987.7
22760 kPa	987.7
22786 kPa	987.7
22812 kPa	987.8
22838 kPa	987.8
22858 kPa	987.8
22884 kPa	987.8
22910 kPa	987.9
22936 kPa	987.9
22957 kPa	988
22983 kPa	987.9
23009 kPa	988
23035 kPa	987.9
23061 kPa	988
23083 kPa	987.9
23110 kPa	988.1
23136 kPa	988.1
23162 kPa	988
23189 kPa	988.1
23215 kPa	988
23238 kPa	988
23264 kPa	988.1
23292 kPa	988
23319 kPa	988.2
23346 kPa	988.2
23370 kPa	988.1
23397 kPa	988.2
23424 kPa	988.2
23447 kPa	988.3
23473 kPa	988.3
23498 kPa	988.2
23522 kPa	988.3
23542 kPa	988.2
23566 kPa	988.2
23591 kPa	988.3
23615 kPa	988.3
23641 kPa	988.4
23661 kPa	988.3
23686 kPa	988.3
23710 kPa	988.4
23736 kPa	988.4
23761 kPa	988.3
23782 kPa	988.3
23807 kPa	988.4
23832 kPa	988.4
23858 kPa	988.5
23879 kPa	988.4
23904 kPa	988.4
23930 kPa	988.5
23956 kPa	988.4
23981 kPa	988.6
24006 kPa	988.6
24028 kPa	988.5
24053 kPa	988.5
24079 kPa	988.5
24103 kPa	988.5
24128 kPa	988.6
24154 kPa	988.6
24180 kPa	988.6
24202 kPa	988.7
24228 kPa	988.6
24254 kPa	988.6
24281 kPa	988.8
24303 kPa	988.7
24329 kPa	988.8
24355 kPa	988.7
24382 kPa	988.8
24410 kPa	988.7
24431 kPa	988.6
24458 kPa	988.8
24480 kPa	988.9
24507 kPa	988.9
24535 kPa	989
24562 kPa	988.8
24589 kPa	989
24612 kPa	989

From the NIST ThermoML archive (doi:10.1021/je060271a)
